Among the data in patent publication US20230416232A1, “PYRIMIDINE COMPOUNDS, COMPOSITIONS, AND MEDICINAL APPLICATIONS THEREOF” (Blueprint Medicines Corporation, priority 2020, published 2023) are IC50 and GI50 values, retold here.

Holding throughout (assay type): cell-based
For one assay, the system named is A431 cells. The assay can be described thus: Cellular proliferation (Alamar Blue) assay, A431 cells. The following applies: Homo sapiens, A-431, 72 h, A431 cells; 72 hr; Alamar Blue; read-out: A431 IC50. The procedure, abridged: (§1)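 Ba/F3 cells (15,000/well, RPMI + 10% FBS) or A431 cells (5000/well, DMEM + 10% FBS) were seeded for 16-18 h at 37 °C, then treated 72 h with compound at a final 10-0.0005 μM (3-fold dilutions). Alamar Blue was added for 3 h before read-out.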
Background: Alamar Blue is a resazurin reagent that responds to reducing activity.

The target in assay [1] is EGFR(D770_N771insSVD) expressing Ba/F3 stable cell line (Homo sapiens, UniProt P00533, DUP768-770, cells depend on it). The assay can be described thus: Cellular proliferation (Alamar Blue) assay, EGFR(D770_N771insSVD) Ba/F3. The note with it: 72 hr, read-out: D770 IC50. In a few lines: as §1
Assay [2] has as its target EGFR (A767_dupASV) expressing Ba/F3 stable cell line (Homo sapiens, UniProt P00533, DUP767-769, cells depend on it). The assay can be described thus: Cellular proliferation (Alamar Blue) assay, EGFR (A767_dupASV) Ba/F3. The following applies: 72 hr, read-out: A767 IC50. The procedure, abridged: as §1
The target in assay [3] is HER2 (A775_G776insYVMA) expressing Ba/F3 stable cell line (Homo sapiens, UniProt P04626, DUP772-775, cells depend on it). The assay can be described thus: Cellular proliferation (Alamar Blue) assay, HER2 (A775_G776insYVMA) Ba/F3. The following applies: HER2 (A775_G776insYVMA) Ba/F3 cells; 72 hr; Alamar Blue; read-out: YVMA IC50. The procedure, abridged:
as §1

Chain of HER2 (A775_G776insYVMA) expressing Ba/F3 stable cell line (P04626 with tags, fused parts or gaps DUP772-775): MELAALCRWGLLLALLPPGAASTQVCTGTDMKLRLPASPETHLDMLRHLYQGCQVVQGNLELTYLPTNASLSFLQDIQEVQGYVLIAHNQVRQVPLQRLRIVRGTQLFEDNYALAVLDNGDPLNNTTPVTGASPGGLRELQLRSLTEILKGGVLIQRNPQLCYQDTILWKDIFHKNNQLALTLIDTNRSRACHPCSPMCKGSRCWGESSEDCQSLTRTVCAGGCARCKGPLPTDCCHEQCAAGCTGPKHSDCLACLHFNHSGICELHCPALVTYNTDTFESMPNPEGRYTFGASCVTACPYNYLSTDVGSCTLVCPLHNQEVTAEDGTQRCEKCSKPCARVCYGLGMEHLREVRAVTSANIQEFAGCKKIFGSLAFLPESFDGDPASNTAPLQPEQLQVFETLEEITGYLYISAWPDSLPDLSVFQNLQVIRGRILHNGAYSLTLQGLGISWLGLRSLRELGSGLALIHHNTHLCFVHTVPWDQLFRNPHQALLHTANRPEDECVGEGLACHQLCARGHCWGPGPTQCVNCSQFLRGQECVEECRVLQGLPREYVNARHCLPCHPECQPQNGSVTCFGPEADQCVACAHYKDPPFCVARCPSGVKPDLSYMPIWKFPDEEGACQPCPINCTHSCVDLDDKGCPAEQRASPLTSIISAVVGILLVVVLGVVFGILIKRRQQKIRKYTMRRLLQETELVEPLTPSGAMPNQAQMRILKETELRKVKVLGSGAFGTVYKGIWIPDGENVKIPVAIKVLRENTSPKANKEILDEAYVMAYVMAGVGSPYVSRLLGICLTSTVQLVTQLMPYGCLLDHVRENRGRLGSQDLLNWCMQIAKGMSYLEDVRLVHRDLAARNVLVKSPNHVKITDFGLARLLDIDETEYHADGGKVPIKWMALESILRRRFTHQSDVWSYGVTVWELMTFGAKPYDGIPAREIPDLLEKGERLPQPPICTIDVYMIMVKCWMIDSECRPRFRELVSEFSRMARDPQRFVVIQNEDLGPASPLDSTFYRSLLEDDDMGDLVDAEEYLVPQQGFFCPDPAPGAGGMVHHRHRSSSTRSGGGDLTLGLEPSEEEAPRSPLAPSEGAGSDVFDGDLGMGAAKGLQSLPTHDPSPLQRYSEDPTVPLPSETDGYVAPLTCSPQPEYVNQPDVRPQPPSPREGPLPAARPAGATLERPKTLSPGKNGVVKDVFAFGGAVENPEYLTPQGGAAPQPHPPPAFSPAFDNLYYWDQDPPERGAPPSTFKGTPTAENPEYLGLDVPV
Chain of EGFR(D770_N771insSVD) expressing Ba/F3 stable cell line (P00533 with tags, fused parts or gaps DUP768-770): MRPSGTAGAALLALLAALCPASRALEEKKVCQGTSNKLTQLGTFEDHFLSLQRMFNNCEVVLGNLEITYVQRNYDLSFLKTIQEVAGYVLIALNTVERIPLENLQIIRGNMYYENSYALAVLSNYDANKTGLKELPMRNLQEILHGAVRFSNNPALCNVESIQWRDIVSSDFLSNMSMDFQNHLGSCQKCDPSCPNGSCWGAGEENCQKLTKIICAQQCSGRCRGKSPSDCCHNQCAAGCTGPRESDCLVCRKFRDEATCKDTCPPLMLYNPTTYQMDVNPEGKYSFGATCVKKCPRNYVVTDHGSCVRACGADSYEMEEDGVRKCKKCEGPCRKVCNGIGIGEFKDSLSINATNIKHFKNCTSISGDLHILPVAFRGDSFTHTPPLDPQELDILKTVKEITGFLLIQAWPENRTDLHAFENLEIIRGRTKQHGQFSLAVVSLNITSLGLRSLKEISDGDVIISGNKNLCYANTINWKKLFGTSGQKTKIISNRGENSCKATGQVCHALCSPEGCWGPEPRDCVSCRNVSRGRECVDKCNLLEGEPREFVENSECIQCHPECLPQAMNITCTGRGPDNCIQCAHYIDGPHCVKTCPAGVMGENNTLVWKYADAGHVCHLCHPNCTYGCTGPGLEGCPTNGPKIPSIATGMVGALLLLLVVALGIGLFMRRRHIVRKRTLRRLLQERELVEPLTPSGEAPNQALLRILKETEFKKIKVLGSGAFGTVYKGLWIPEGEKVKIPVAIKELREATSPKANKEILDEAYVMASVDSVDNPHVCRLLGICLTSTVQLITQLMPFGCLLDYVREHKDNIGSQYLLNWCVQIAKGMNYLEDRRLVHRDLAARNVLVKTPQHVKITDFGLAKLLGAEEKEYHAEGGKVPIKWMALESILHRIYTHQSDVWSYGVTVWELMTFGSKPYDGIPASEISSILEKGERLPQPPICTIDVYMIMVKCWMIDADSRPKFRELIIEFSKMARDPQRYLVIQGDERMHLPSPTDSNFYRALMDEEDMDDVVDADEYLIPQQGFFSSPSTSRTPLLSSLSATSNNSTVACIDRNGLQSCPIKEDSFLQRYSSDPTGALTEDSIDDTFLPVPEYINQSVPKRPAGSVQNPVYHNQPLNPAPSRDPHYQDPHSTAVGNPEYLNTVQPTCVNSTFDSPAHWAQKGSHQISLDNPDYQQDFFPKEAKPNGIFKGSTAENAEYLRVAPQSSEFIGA
Chain of EGFR (A767_dupASV) expressing Ba/F3 stable cell line (P00533 with tags, fused parts or gaps DUP767-769): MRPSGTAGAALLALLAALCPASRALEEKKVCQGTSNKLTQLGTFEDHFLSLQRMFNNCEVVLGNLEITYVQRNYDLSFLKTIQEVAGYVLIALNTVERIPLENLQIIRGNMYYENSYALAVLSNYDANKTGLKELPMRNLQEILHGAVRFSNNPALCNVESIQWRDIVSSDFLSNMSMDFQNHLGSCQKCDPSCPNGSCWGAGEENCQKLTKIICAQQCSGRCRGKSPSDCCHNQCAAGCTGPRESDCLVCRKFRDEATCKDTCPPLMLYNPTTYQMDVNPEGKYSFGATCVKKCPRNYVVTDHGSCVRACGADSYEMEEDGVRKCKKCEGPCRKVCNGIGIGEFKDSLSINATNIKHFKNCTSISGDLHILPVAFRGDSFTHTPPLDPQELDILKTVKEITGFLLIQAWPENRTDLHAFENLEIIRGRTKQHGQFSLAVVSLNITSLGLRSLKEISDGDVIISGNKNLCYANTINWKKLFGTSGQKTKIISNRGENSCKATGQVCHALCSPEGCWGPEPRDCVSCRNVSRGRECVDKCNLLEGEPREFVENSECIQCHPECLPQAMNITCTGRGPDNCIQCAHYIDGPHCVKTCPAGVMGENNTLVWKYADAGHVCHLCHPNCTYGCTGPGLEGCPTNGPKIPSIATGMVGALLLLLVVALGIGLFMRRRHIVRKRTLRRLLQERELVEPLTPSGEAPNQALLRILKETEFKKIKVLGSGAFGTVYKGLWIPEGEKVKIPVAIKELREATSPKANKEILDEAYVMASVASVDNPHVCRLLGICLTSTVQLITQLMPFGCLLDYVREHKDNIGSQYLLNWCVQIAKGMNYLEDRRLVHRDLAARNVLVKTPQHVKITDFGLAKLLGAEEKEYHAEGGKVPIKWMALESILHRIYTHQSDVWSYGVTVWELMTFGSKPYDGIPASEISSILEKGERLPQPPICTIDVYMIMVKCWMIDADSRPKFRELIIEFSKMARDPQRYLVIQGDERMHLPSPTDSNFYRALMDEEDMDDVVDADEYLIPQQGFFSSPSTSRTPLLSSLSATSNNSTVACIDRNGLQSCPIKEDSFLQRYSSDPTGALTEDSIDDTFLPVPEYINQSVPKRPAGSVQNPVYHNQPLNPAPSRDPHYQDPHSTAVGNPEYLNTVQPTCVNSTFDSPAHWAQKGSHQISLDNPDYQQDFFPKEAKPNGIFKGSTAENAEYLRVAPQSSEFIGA

As usually defined, the IC50 is the concentration needed to halve the response being measured. As for `Cn1cc(Nc2ncc(-c3ccc(Br)c(F)c3)c(Nc3cc(NC(=O)/C=C/CN4CCC4)ccc3F)n2)cn1` [Compound 166, (E)-4-(azetidin-1-yl)-N-(3-((5-(4-bromo-3-fluorophenyl)-2-((1-methyl-1H-pyrazol-4-yl)amino)pyrimidin-4-yl)amino)-4-fluorophenyl)but-2-enamide], the concentration for half-maximal inhibition (IC50) in the assay with A431 cells stood at 613 nM. Moreover, the GI50 in assay [1] is 75 nM; in assay [2], 299 nM; in assay [3], 555 nM.
Regarding `C=CC(=O)Nc1cccc(Nc2nc(Nc3cnn(C)c3)ncc2-c2ccc(OC(F)F)c(F)c2)c1` [Compound 124, N-(3-((5-(4-(difluoromethoxy)-3-fluorophenyl)-2-((1-methyl-1H-pyrazol-4-yl)amino)pyrimidin-4-yl)amino)phenyl)acrylamide], the IC50 in the assay with A431 cells is 6 nM. The GI50 in assay [1] turned out to be 11 nM; in assay [2], 21 nM; in assay [3], 49 nM.
For the compound `[2H]C([2H])=CC(=O)Nc1ccc(F)c(Nc2nc(Nc3cnn(C)c3)ncc2-c2ccc(Br)c(F)c2)c1` [Compound 102, N-(3-((5-(4-bromo-3-fluorophenyl)-2-((1-methyl-1H-pyrazol-4-yl)amino)pyrimidin-4-yl)amino)-4-fluorophenyl)acrylamide-3,3-d2], the IC50 with A431 cells was 69 nM. In addition, the GI50 in assay [1] was found to be 35 nM; in assay [2], 30 nM; in assay [3], 117 nM.
The corresponding values for `[2H]C([2H])([2H])n1cc(Nc2ncc(-c3cc(F)cc(F)c3)c(Nc3cc(NC(=O)/C=C/CN(C)C)ccc3F)n2)cn1` [Compound 167, (E)-N-(3-((5-(3,5-difluorophenyl)-2-((1-(methyl-d3)-1H-pyrazol-4-yl)amino)pyrimidin-4-yl)amino)-4-fluorophenyl)-4-(dimethylamino)but-2-enamide] are 512 nM, 84 nM, 234 nM and 142 nM.
The corresponding values for `C=CC(=O)Nc1cc(Br)cc(Nc2nc(Nc3cnn(C)c3)ncc2-c2cc(F)cc(Cl)c2)c1` [Compound 173, N-(3-bromo-5-((5-(3-chloro-5-fluorophenyl)-2-((1-methyl-1H-pyrazol-4-yl)amino)pyrimidin-4-yl)amino)phenyl)acrylamide] are 776 nM, 101 nM, 311 nM and 1520 nM.
The corresponding values for `C=CC(=O)Nc1ccc(F)c(Nc2nc(Nc3cnn(C)c3)ncc2-c2cc(F)cc(Br)c2)c1` [Compound 109, N-(3-((5-(3-bromo-5-fluorophenyl)-2-((1-methyl-1H-pyrazol-4-yl)amino)pyrimidin-4-yl)amino)-4-fluorophenyl)acrylamide] are 534 nM, 53 nM, 97 nM and 192 nM.
Consider `C=CC(=O)Nc1ccc(F)c(Nc2nc(Nc3cnn(C)c3)ncc2-c2cnc(F)c(F)c2)c1` [Compound 29, N-(3-((5-(5,6-difluoropyridin-3-yl)-2-((1-methyl-1H-pyrazol-4-yl)amino)pyrimidin-4-yl)amino)-4-fluorophenyl)acrylamide], for which the IC50 in the assay with A431 cells worked out at 20 nM. Moreover, the results for the GI50 in assay [1], in assay [2] and in assay [3] were 8 nM, 7 nM and 21 nM, respectively.
The corresponding values for `C=CC(=O)Nc1cccc(Nc2nc(Nc3cnn(C)c3)ncc2-c2cc(F)c(C(F)(F)F)c(F)c2)c1` [Compound 153, N-(3-((5-(3,5-difluoro-4-(trifluoromethyl)phenyl)-2-((1-methyl-1H-pyrazol-4-yl)amino)pyrimidin-4-yl)amino)phenyl)acrylamide] are 1080 nM, 13 nM, 34 nM and 98 nM.
The corresponding values for `[2H]c1c(F)cc(-c2cnc(Nc3cnn(C)c3)nc2Nc2cc(NC(=O)C=C)ccc2F)cc1F` [Compound 157, N-[3-({5-[3,5-difluoro(4-^2H)phenyl]-2-[(1-methyl-1H-pyrazol-4-yl)amino]pyrimidin-4-yl}amino)-4-fluorophenyl] prop-2-enamide] are 23 nM, 16 nM, 35 nM and 151 nM.
The corresponding values for `C=CC(=O)Nc1ccc(F)c(Nc2nc(Nc3cnn(C)c3)ncc2-c2ccc(N3CCCCCC3)c(F)c2)c1` [Compound 85, N-(3-((5-(4-(azepan-1-yl)-3-fluorophenyl)-2-((1-methyl-1H-pyrazol-4-yl)amino)pyrimidin-4-yl)amino)-4-fluorophenyl)acrylamide] are 2820 nM, 314 nM, 268 nM and 884 nM.
Consider `C=CC(=O)Nc1ccc(F)c(Nc2nc(Nc3cnn(C)c3)ncc2-c2cc(F)c(C(F)(F)F)c(OC)c2)c1` [Compound 133, N-(4-fluoro-3-((5-(3-fluoro-5-methoxy-4-(trifluoromethyl)phenyl)-2-((1-methyl-1H-pyrazol-4-yl)amino)pyrimidin-4-yl)amino)phenyl)acrylamide], for which the IC50 in the assay with A431 cells worked out at 394 nM. The GI50 in assay [1] came to 251 nM; in assay [2] it was 322 nM; in assay [3], 1270 nM.
The corresponding values for `C=CC(=O)Nc1cccc(Nc2nc(Nc3cnn(C)c3)ncc2-c2cc(F)c(Br)c(Cl)c2)c1` [Compound 154, N-(3-((5-(4-bromo-3-chloro-5-fluorophenyl)-2-((1-methyl-1H-pyrazol-4-yl)amino)pyrimidin-4-yl)amino)phenyl)acrylamide] are 1760 nM, 34 nM, 81 nM and 154 nM.
The corresponding values for `C=CC(=O)Nc1ccc(F)c(Nc2nc(Nc3cnn(C)c3)ncc2-c2cc(F)c(F)c(OC)c2)c1` [Compound 126, N-(3-((5-(3,4-difluoro-5-methoxyphenyl)-2-((1-methyl-1H-pyrazol-4-yl)amino)pyrimidin-4-yl)amino)-4-fluorophenyl)acrylamide] are 43 nM, 40 nM, 100 nM and 153 nM.
The corresponding values for `CN(C)C/C=C/C(=O)Nc1cccc(Nc2nc(Nc3cnn(C)c3)ncc2-c2cc(F)cc(F)c2)c1` [Compound 150, (E)-N-(3-((5-(3,5-difluorophenyl)-2-((1-methyl-1H-pyrazol-4-yl)amino)pyrimidin-4-yl)amino)phenyl)-4-(dimethylamino)but-2-enamide] are 214 nM, 126 nM, 110 nM and 237 nM.
Turning to `CN(C)C/C=C/C(=O)Nc1ccc(F)c(Nc2nc(Nc3cnn(C)c3)ncc2-c2cc(F)cc(F)c2)c1` [Compound 117, (E)-N-(3-((5-(3,5-difluorophenyl)-2-((1-methyl-1H-pyrazol-4-yl)amino)pyrimidin-4-yl)amino)-4-fluorophenyl)-4-(dimethylamino)but-2-enamide], in the assay on A431 cells, the half-maximal inhibitory concentration (IC50) came out at 668 nM. In addition, the values for the GI50 in assay [1], in assay [2] and in assay [3] were 135 nM, 328 nM and 141 nM, respectively.
The corresponding values for `C=CC(=O)Nc1ccc(F)c(Nc2nc(Nc3cnn(C)c3)ncc2-c2cc(F)cc(OC(F)F)c2)c1` [Compound 168, N-(3-((5-(3-(difluoromethoxy)-5-fluorophenyl)-2-((1-methyl-1H-pyrazol-4-yl)amino)pyrimidin-4-yl)amino)-4-fluorophenyl)acrylamide] are 67 nM, 262 nM, 132 nM and 574 nM.
`C=CC(=O)Nc1ccc(F)c(Nc2nc(Nc3cnn(CCOC)c3)ncc2-c2ccc(F)c(Cl)c2)c1` [Compound 100, N-(3-((5-(3-chloro-4-fluorophenyl)-2-((1-(2-methoxyethyl)-1H-pyrazol-4-yl)amino)pyrimidin-4-yl)amino)-4-fluorophenyl)acrylamide]: the half-inhibitory concentration (IC50) with A431 cells was found to be 1200 nM. Besides, the results for the GI50 in assay [1], in assay [2] and in assay [3] were 274 nM, 301 nM and 860 nM, respectively.
The corresponding values for `C=CC(=O)Nc1ccc(F)c(Nc2nc(Nc3cn(C)nc3Cl)ncc2-c2cc(F)cc(OC)c2)c1` [Compound 106, N-(3-((2-((3-chloro-1-methyl-1H-pyrazol-4-yl)amino)-5-(3-fluoro-5-methoxyphenyl)pyrimidin-4-yl)amino)-4-fluorophenyl)acrylamide] are 125 nM, 285 nM, 35 nM and 568 nM.
The corresponding values for `CN(C)C/C=C/C(=O)Nc1ccc(F)c(Nc2nc(Nc3cnn(C)c3)ncc2-c2cc(F)c(Br)c(F)c2)c1` [Compound 171, (E)-N-(3-((5-(4-bromo-3,5-difluorophenyl)-2-((1-methyl-1H-pyrazol-4-yl)amino)pyrimidin-4-yl)amino)-4-fluorophenyl)-4-(dimethylamino)but-2-enamide] are 57 nM, 79 nM, 99 nM and 113 nM.
The corresponding values for `C=CC(=O)Nc1cccc(Nc2nc(Nc3cnn(C)c3)ncc2-c2cc(F)c(Br)c(F)c2)c1` [Compound 152, N-(3-((5-(4-bromo-3,5-difluorophenyl)-2-((1-methyl-1H-pyrazol-4-yl)amino)pyrimidin-4-yl)amino)phenyl)acrylamide] are 8 nM, 11 nM, 34 nM and 40 nM.
